# Measured values from ChEMBL document CHEMBL1201862, “PubChem BioAssay data set” (2004).
# Active and inactive are the calls of the source.
# Experiments:
# [1] = viability of PTEN-deleted HCT116 cells – cell-based, HCT116 PTEN knockout, dose response (AID 1047); format: functional;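 note: HCT116 colon tumor cells with PTEN knocked out; cells exposed to compound for 60 hours before readout; potency for loss of cell viability measured by luminescence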
# [2] = viability of HCT116 lacking mutant beta-catenin – cell-based, human colon tumor, dose response (AID 1045); format: functional;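 note: HCT116 colon tumor cells with beta catenin knocked out; cells exposed to compound for 60 hours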
# Vero [3] = experiment: cells; format: functional, cell-based; details: Chlorocebus sabaeus
# Vero [4] = experiment: cells; format: functional; details: Chlorocebus sabaeus
# HEK293 = experiment: cells; format: functional, cell-based; details: Homo sapiens
# [5] = biological target: T1, Nuclear receptor subfamily 0 group B member 1 (Homo sapiens, UniProt P51843); experiment: Luminescence-based cell-based high throughput dose response assay for inhibitors of the orphan nuclear receptor subfamily 0, group B, member 1 (DAX1; NR0B1). [Related pubchem assays (depositor defined):AID504766, AID504790]; format: functional
# T1 sequence (P51843 whole entry): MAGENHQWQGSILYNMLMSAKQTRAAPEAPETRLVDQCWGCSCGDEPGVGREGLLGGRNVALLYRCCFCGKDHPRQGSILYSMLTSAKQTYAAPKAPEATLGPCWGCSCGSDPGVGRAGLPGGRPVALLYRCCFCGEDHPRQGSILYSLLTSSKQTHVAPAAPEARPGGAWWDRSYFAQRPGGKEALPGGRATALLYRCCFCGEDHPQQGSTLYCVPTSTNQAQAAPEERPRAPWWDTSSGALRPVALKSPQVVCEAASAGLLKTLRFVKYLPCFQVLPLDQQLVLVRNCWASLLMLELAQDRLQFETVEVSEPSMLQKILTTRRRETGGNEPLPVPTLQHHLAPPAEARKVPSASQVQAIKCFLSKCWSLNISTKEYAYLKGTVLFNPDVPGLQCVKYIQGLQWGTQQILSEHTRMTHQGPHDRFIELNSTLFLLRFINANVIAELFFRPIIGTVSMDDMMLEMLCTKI
# [6] = decrease of insulin promoter-GFP reporter – imaging, high-content screening, mouse beta cells (AID 1628); format: functional; details: MIN6
# [7] = system: Streptococcus sp. 'group A'; experiment: Streptococcus pyogenes SK(-)GAS viability under kanamycin – luminescence, BacTiterGlo, confirmation, counter-screen for streptokinase expression inhibitor project, dose response (AID 1900); format: functional, organism-based
# cells [8] = format: functional, cell-based
# [9] = MIN6 cell viability loss – mouse insulinoma, cytotoxicity control, dose response (AID 2122); format: functional;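 note: confirmatory high-throughput counterscreen run to flag cytotoxic compounds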
# [10] = Trypanosoma cruzi growth suppression in host cells – NIH3T3 host cells, beta-gal luminescence, confirmation (AID 2044); format: functional, cell-based;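 note: intracellular parasites grown in NIH/3T3 mouse fibroblasts as host cells; luminescent beta-galactosidase reporter signal from transgenic T. cruzi replicating inside host cells; inhibitors lower the luminescence signal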
# cells [11] = format: functional, cell-based; remark: listed apart in the source
# [12] = NIH3T3 cell viability loss – ATP luminescence, mouse fibroblasts, counter-screen, dose response (AID 2010); format: functional, cell-based;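 note: cells exposed to compound for about 90 hours before reading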
# Streptococcus = experiment: GAS UMAA2166 growth inhibition – luminescence, BacTiterGlo, counter-screen for streptokinase expression inhibitor project, dose response (AID 1915); format: functional, organism-based;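 note: potency for reduction of bacterial viability or growth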
# [13] = Luminescence Cell-Based Dose Retest to Confirm Inhibitors of Cancer Stem Cells. [Related pubchem assays (depositor defined):AID2717, AID2721]; format: functional; details: Homo sapiens
# INS1 = experiment: INS-1E survival protection against cytokine death – cell-based, luminescence, retest, dose response (AID 449756); format: functional; details: Rattus norvegicus;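 note: cell death triggered by IL-1 beta plus TNF-alpha plus IFN-gamma mixture; protective hits raise ATP signal compared with cytokine alone wells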
# [14] = biological target: T2, Voltage-gated N-type calcium channel alpha-1B subunit/Amyloid beta A4 precursor protein-binding family A member 1 (Homo sapiens, UniProt Q00975+Q02410); format: protein assay
# [15] = biological target: T2, Voltage-gated N-type calcium channel alpha-1B subunit/Amyloid beta A4 precursor protein-binding family A member 1; format: protein assay; remark: listed apart in the source
# [16] = biological target: T3, Heat shock factor protein 1 (Mus musculus, UniProt P38532); experiment: enhancement of HSF1-driven luciferase signal – cell-based, NIH3T3, luminescence, dose retest, confirmation (AID 435004); format: functional;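 note: stress induced by proteasome inhibitor MG132 added 30 min after compound; luciferase reporter driven by HSF1 response element in NIH3T3 cells; actives raise luminescence as potentiators of the MG132 stress response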
# T3 sequence (P38532 whole entry): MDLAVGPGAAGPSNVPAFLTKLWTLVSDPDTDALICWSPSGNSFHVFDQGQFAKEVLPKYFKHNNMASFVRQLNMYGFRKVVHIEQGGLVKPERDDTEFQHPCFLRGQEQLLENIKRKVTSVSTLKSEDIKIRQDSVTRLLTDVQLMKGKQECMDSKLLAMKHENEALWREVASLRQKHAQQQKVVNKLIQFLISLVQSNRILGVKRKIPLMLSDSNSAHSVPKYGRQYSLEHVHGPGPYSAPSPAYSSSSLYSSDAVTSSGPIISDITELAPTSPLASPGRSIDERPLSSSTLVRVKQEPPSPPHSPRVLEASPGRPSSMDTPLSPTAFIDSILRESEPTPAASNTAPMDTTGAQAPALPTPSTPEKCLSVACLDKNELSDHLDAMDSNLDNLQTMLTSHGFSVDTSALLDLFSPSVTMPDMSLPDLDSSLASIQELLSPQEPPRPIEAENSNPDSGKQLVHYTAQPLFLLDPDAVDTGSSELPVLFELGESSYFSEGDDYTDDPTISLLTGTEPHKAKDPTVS
# Paired box protein Pax-8 = Paired box protein Pax-8 (Homo sapiens, UniProt Q06710); experiment: PAX8 transcriptional activity inhibition in RMG-I – RMG-I cells, luciferase, cherry-pick, dose response (AID 687027); format: functional, cell-based;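 note: luciferase reporter driven by Pax8 target thyroperoxidase promoter measured by SteadyGlo luminescence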
# [17] = general cell-killing toxicity readout – plate reader, dry powder samples, cytotoxicity control for PAX8 inhibitor project, dose response (AID 743021); format: functional, cell-based
# Cytochrome P450 3A4 = Cytochrome P450 3A4 (Homo sapiens, UniProt P08684);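 note: CYP3A4 tested as one member of a cytochrome P450 panel screen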
# H4 = experiment: Luminescence Cell-Based Dose Response HTS to Identify Activators of 5'UTR Stem-Loop Driven Prion Protein mRNA Translation in H4 Neuroglioblastoma Cells. [Related pubchem assays: 1829 (Project Summary), 1814 (Primary HTS)]; format: functional; details: Homo sapiens
# Protein skinhead-1 = biological target: T4, Protein skinhead-1 (Caenorhabditis elegans, UniProt P34707); format: functional
# T4 sequence (P34707 whole entry): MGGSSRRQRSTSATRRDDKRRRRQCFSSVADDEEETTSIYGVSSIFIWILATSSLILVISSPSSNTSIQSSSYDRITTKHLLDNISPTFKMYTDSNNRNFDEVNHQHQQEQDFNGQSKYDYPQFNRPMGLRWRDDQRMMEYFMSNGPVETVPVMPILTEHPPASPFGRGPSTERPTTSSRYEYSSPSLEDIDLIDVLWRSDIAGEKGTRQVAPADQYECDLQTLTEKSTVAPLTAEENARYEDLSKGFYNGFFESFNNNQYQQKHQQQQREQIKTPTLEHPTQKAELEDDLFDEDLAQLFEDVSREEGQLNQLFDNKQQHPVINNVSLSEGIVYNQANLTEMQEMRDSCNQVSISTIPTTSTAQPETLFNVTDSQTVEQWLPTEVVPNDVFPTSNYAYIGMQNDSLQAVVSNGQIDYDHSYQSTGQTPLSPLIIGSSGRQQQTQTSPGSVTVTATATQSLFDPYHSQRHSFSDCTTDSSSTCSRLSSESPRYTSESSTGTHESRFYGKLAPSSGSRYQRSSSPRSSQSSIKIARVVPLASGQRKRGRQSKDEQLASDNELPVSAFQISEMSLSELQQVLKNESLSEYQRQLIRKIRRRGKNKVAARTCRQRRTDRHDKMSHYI
# Cytochrome P450 2C9 = Cytochrome P450 2C9 (Homo sapiens, UniProt P11712)
# Genome polyprotein = Genome polyprotein (dengue virus type 2, UniProt P29990); experiment: flavivirus cap methylation enzyme inhibition – biochemical, confirmation dose response, primary screen (AID 588689); format: functional
# [18] = biological target: T5, Rac GTPase-activating protein 1 (Homo sapiens, UniProt Q9H0H5); experiment: blockers of MgcRacGAP-driven Rac1 GTP hydrolysis – biochemical, ADP Hunter fluorescence, primary and confirmatory, confirmation (AID 624330); format: functional
# T5 sequence (Q9H0H5 whole entry): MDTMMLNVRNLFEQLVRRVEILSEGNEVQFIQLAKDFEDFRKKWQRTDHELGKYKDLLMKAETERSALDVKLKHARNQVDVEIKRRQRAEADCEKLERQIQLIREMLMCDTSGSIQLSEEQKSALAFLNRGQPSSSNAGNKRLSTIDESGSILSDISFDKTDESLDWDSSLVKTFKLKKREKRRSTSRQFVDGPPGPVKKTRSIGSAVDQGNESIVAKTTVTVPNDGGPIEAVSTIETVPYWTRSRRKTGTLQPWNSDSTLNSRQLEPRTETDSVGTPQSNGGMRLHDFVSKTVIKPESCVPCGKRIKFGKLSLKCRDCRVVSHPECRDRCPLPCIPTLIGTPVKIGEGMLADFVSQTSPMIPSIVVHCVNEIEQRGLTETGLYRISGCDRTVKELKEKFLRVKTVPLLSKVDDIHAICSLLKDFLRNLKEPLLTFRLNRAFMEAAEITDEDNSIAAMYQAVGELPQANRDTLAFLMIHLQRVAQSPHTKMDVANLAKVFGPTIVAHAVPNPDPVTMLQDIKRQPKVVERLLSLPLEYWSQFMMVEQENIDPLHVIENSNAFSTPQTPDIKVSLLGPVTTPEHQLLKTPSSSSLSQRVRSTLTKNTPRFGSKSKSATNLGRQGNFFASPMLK
# Cytochrome P450 2D6 = Cytochrome P450 2D6 (Homo sapiens, UniProt P10635);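 note: CYP2D6 member of a cytochrome P450 panel assay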
# [19] = luciferase reporter signal suppression in cells – H4 neuroglioma cells, luminescence, dose response (AID 1990); format: functional, cell-based
# [20] = Luminescence Cell-Based Dose Response HTS to Identify Inhibitors of 5'UTR Stem-Loop Driven Prion Protein mRNA Translation in H4 Neuroglioblastoma Cells. [Related pubchem assays: 1827 (Project Summary), 1813 (Primary HTS)]; format: functional
# [21] = alpha-synuclein stem-loop luciferase translation blockers – H4 neuroglioma cells, luminescence, confirmation (AID 1988); format: functional, cell-based
# [22] = HEK-293T viability loss after treatment – luminescence, T-cell screen hits, cytotoxicity control for TCR NF-kB inhibitor project, dose response (AID 489026); format: functional, cell-based;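 note: cells exposed to compound about 14 hours before the viability readout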
# Sequence of Cytochrome P450 3A4 (P08684 whole entry): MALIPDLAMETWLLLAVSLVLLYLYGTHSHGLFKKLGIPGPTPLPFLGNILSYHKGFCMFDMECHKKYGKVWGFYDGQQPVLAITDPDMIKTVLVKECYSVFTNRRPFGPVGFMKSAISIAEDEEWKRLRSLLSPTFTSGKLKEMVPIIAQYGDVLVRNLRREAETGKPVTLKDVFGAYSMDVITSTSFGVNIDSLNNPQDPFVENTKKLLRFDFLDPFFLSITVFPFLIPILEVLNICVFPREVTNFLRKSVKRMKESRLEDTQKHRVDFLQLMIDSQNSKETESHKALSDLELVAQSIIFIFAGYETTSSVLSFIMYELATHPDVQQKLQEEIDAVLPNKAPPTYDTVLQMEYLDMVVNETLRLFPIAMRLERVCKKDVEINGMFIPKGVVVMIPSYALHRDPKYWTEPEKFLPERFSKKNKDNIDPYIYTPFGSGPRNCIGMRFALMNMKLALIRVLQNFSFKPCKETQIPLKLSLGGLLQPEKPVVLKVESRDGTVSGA
# T2 sequence (Q00975 whole entry): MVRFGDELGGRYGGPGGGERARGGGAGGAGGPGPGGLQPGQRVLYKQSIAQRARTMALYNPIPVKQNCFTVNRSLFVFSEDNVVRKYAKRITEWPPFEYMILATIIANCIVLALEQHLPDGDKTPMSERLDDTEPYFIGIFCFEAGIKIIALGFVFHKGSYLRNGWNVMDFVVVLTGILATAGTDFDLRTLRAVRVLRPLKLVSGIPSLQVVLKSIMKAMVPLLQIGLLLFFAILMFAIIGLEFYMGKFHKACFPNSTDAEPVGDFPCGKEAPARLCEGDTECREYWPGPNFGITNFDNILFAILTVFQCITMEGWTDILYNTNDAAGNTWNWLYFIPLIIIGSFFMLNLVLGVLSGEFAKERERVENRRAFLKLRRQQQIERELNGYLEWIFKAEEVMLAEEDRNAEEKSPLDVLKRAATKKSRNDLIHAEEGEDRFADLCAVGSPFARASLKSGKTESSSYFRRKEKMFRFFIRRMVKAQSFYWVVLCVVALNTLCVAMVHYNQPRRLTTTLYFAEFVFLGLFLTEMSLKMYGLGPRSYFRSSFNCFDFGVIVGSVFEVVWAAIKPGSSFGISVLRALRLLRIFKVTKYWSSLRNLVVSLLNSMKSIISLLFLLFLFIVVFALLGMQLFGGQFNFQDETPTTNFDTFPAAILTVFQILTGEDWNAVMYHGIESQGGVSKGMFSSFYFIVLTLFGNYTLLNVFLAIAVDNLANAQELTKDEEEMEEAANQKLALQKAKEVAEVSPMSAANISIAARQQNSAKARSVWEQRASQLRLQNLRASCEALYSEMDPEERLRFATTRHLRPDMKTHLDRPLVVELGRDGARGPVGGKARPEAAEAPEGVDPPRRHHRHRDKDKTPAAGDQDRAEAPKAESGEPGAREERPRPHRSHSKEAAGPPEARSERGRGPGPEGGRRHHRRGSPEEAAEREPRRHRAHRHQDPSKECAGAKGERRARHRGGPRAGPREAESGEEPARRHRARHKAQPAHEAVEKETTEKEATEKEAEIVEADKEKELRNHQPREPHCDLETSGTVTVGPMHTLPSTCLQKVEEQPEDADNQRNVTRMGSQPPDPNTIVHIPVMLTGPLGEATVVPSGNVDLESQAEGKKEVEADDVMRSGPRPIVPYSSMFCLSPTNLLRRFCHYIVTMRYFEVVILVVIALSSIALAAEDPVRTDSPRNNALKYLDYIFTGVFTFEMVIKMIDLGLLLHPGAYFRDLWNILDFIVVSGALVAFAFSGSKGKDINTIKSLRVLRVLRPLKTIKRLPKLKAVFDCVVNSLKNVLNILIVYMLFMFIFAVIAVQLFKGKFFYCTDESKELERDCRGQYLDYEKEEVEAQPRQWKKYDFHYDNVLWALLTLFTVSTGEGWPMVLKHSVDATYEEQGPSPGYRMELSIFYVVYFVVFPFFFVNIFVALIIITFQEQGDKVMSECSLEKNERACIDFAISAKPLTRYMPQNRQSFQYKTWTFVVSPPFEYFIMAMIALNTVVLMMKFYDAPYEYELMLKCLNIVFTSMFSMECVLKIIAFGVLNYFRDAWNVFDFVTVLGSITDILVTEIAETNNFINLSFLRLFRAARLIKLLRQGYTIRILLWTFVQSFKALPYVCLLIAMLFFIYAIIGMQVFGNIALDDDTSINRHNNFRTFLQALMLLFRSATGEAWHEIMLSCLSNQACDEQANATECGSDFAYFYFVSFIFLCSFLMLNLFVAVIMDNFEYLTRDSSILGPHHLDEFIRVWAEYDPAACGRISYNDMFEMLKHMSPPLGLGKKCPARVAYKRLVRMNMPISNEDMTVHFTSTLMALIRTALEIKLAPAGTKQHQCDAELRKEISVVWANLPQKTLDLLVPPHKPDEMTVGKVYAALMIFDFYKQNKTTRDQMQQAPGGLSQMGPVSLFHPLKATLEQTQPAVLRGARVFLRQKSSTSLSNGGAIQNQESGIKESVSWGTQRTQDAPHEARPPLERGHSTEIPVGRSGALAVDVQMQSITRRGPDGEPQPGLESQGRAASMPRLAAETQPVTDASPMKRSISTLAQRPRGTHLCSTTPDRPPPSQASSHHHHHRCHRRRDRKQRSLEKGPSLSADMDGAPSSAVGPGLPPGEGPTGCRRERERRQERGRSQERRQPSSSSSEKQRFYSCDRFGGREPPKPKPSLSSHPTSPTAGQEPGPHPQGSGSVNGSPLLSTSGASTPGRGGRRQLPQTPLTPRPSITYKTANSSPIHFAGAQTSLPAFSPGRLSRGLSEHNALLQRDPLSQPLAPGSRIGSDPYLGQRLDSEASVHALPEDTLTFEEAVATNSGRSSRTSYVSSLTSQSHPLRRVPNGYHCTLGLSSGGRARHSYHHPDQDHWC
# T2 sequence (Q02410 whole entry): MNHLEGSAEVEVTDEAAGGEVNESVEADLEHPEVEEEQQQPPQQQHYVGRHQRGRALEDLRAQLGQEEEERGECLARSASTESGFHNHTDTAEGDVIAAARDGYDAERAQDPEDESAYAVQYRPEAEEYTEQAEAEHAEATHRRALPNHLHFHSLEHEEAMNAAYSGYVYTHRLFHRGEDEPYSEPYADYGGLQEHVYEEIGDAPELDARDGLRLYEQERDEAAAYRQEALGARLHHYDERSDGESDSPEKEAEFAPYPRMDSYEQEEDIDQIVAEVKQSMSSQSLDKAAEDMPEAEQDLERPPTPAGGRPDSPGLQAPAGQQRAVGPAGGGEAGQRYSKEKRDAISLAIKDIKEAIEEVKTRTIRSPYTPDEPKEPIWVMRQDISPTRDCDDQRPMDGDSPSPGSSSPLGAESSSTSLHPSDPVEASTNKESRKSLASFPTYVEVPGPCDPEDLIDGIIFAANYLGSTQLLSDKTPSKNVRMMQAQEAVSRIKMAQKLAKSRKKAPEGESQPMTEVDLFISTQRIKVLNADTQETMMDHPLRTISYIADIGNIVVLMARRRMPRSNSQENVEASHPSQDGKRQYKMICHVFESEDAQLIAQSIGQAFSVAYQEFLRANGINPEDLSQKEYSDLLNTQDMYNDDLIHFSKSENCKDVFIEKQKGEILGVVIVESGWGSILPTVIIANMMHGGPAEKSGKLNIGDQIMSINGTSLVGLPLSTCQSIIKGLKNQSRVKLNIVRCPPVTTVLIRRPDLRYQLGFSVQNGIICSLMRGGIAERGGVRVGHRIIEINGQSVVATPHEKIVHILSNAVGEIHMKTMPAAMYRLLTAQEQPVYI
# Sequence of Cytochrome P450 2D6 (P10635 whole entry): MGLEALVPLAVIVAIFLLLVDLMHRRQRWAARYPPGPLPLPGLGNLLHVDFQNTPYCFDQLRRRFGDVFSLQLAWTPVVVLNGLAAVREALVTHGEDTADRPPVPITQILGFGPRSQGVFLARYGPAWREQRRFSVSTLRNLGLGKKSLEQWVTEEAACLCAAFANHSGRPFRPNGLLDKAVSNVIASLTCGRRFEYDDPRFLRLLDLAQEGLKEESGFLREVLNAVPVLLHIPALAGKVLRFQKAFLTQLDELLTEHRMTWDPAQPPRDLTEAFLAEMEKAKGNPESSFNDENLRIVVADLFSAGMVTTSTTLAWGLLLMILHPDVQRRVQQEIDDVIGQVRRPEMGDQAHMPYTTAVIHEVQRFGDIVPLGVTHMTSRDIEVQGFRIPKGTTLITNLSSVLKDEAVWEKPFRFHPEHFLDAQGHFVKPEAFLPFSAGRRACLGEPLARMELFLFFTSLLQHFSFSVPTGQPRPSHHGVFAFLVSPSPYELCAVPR
# Sequence of Genome polyprotein (P29990 2492-3391 limits assumed): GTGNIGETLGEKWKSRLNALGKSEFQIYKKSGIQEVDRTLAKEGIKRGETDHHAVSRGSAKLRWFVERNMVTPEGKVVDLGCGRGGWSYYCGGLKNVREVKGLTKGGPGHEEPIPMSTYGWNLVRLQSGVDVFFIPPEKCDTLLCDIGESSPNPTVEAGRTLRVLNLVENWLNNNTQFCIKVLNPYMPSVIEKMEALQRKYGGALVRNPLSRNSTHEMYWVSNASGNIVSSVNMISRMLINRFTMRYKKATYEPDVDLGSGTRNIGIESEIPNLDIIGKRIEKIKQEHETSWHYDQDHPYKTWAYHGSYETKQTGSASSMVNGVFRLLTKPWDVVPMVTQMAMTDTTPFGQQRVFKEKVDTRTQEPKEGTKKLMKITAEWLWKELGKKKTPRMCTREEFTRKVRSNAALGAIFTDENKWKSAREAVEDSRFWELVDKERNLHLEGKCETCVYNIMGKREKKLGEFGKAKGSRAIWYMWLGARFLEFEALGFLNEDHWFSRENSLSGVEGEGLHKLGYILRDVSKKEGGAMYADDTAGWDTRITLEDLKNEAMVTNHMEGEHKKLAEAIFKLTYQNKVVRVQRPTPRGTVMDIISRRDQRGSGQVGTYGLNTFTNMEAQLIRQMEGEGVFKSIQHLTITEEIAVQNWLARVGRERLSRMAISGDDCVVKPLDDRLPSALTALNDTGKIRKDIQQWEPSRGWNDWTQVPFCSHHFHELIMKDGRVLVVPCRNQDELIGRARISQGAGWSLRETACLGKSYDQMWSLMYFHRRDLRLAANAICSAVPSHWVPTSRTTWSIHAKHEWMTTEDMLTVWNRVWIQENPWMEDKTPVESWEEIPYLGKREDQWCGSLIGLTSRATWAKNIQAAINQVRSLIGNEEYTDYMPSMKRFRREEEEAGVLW
smiles,measurement,setting,value
CC(C)N1C/C(=C/c2ccsc2)C(=O)/C(=C/c2ccsc2)C1,EC50,[1],1.39 µM (active)
same,EC50,[2],1.34 µM (active)
same,IC50,Vero [3],> 25 µM (active)
same,CC50,Vero [4],5.33 µM (active)
CCC[C@H]1CN(c2ccccc2)C(=O)[C@@H]1CC(=O)Nc1ccc(Br)cc1,IC50,HEK293,> 67.5 µM (inactive)
same,IC50,[5],> 67.5 µM (inactive)
O=C(N/N=C/c1cc(Br)ccc1O)C(=O)Nc1ccccc1OC(F)(F)C(F)F,IC50,[6],1.93 µM (active)
same,EC50,[7],0.866 µM (active)
same,EC50,cells [8],10.9 µM (active)
same,IC50,[9],2.22 µM (active)
same,EC50,[10],0.572 µM (active)
same,EC50,cells [11],> 350 µM (not active)
same,EC50,[12],8.61 µM (active)
same,EC50,Streptococcus,1.82 µM (active)
same,AC50,[13],1.62 µM (active)
same,AC50,INS1,2.17 µM (active)
COc1ccc(N2C(=O)CC(Sc3nnnn3-c3ccc(F)cc3)C2=O)cc1 (centres undefined),IC50,[14],11 µM (active)
same,IC50,[15],3.95 µM (active)
same,EC50,[16],17.1 µM (active)
same,AC50,Paired box protein Pax-8,13.6 µM (active)
same,AC50,[17],26.6 µM (active)
COC(=O)N1CCC2(CC1)CCN(c1cccc(-c3ccccc3)c1)CC2,AC50,Cytochrome P450 3A4,inconclusive
CS(=O)(=O)Nc1ccc(S(=O)(=O)N2CCOCC2)cc1,AC50,Cytochrome P450 3A4,inconclusive
COc1ccc(N2CCN(C(=O)C3CCN(S(=O)(=O)c4ccc(C)cc4)CC3)CC2)cc1,IC50,HEK293,> 67.5 µM (inactive)
same,IC50,[5],> 67.5 µM (inactive)
C=CCn1c(SCC(=O)c2cccs2)nc2sc(C)c(C)c2c1=O,IC50,Vero [3],24.8 µM (active)
O=[N+]([O-])c1ccc2nc(-c3ccc(Cl)cc3)n(OCc3ccccc3)c2c1,EC50,H4,0.973 µM (active)
same,IC50,Protein skinhead-1,> 100 µM (inactive)
same,AC50,Cytochrome P450 2C9,22.4 µM (inconclusive)
same,AC50,Cytochrome P450 3A4,inconclusive
Cc1ccc(/C=C/C(=O)c2c(C)nc3ccccn23)cc1,IC50,Vero [3],> 25 µM (active)
same,CC50,Vero [4],17.6 µM (active)
NNc1cc([N+](=O)[O-])cc2c1c(=O)n(Cc1ccccc1)[s+]2[O-] (centres undefined),IC50,[14],10.3 µM (active)
same,IC50,[15],> 50 µM (inactive)
same,IC50,Genome polyprotein,63.4 µM (active)
same,IC50,[18],52.3 µM (active)
Clc1ccccc1-c1cc(NCc2ccccc2)ncn1,AC50,Cytochrome P450 2D6,20 µM (inconclusive)
same,AC50,Cytochrome P450 3A4,inconclusive
Cc1ccc2nc(C)c(CN3CCN(c4ccc([N+](=O)[O-])cc4Cl)CC3)n2c1,EC50,[19],> 120 µM (not active)
same,EC50,[20],17.1 µM (active)
same,EC50,[21],> 120 µM (not active)
same,IC50,[22],> 80 µM (inactive)
same,AC50,INS1,1.79 µM (active)
Cc1ccccc1C(=O)Nc1ccc2c(c1)CCCN2C(=O)c1cccs1,IC50,Vero [3],7.77 µM (active)
same,CC50,Vero [4],> 25 µM (active)
CN(Cc1ccccc1Cl)C(=O)CCNC(=O)c1ccco1,IC50,HEK293,> 67.5 µM (inactive)
same,IC50,[5],> 67.5 µM (inactive)
Cc1ccc(-c2nn(-c3ccccc3)cc2/C=C/C(=O)O)o1,IC50,[14],17.6 µM (active)
same,IC50,[15],30.9 µM (active)
